In PubChem BioAssay AID330 (DTP/NCI, 2004):
“And” between values parts separate entries of the source, which are not always exact repeats. Equal values may be shown once. Inconclusive results and toxic doses are left out.

Tested on: P388 leukemia ip, CD2F1 mice, survival T/C
Experiment: NCI In Vivo Anticancer Drug Screen. Data for tumor model P388 Leukemia (intraperitoneal) in CD2F1 (CDF1) mice
Conditions: endpoint: median survival time, higher = longer survival
Summary of the method: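 Mice carrying the transplanted tumor received test compound or vehicle. Survival was recorded in each group, and the value is the treated-group measurement divided by that of the vehicle-treated control group.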

[1] = dose: 50.0 mg/kg/injection, schedule: Q01DX005 (ip), vehicle: Klucel (hydroxypropylcellulose) (HPC)
[2] = dose: 100.0 mg/kg/injection, schedule: Q01DX005 (ip), vehicle: Klucel (hydroxypropylcellulose) (HPC)
[3] = dose: 200.0 mg/kg/injection, schedule: Q01DX005 (ip), vehicle: Klucel (hydroxypropylcellulose) (HPC)
[4] = dose: 100.0 mg/kg/injection, schedule: Q01DX001 (ip), vehicle: saline with Tween-80
[5] = dose: 200.0 mg/kg/injection, schedule: Q01DX001 (ip), vehicle: saline with Tween-80
[6] = dose: 50.0 mg/kg/injection, schedule: Q01DX009 (ip), vehicle: saline with Tween-80
[7] = dose: 100.0 mg/kg/injection, schedule: Q01DX009 (ip), vehicle: saline with Tween-80
[8] = dose: 200.0 mg/kg/injection, schedule: Q01DX009 (ip), vehicle: saline with Tween-80
[9] = dose: 50.0 mg/kg/injection, schedule: Q01DX009 (ip), vehicle: Klucel (hydroxypropylcellulose) (HPC)
[10] = dose: 100.0 mg/kg/injection, schedule: Q01DX009 (ip), vehicle: Klucel (hydroxypropylcellulose) (HPC)

Question: For `COc1cccc2c1C(=O)c1c(O)c3c(c(O)c1C2=O)CC(O)(c1csc(-c2ccccc2)n1)CC3O` (stereo unspecified), which T/C (dose: 1.56 mg/kg/injection, schedule: Q01DX009 (ip), vehicle: water) is on record?
Answer: 106 % of control

Question: And the T/C (dose: 3.13 mg/kg/injection, schedule: Q01DX009 (ip), vehicle: water)?
Answer: 100 % of control

Question: And the T/C (dose: 6.25 mg/kg/injection, schedule: Q01DX009 (ip), vehicle: water)?
Answer: 109 % of control

Question: And the T/C (dose: 12.5 mg/kg/injection, schedule: Q01DX009 (ip), vehicle: water)?
Answer: 109 % of control

Question: And the T/C (dose: 25.0 mg/kg/injection, schedule: Q01DX009 (ip), vehicle: water)?
Answer: 103 % of control

Question: What about the T/C (dose: 50.0 mg/kg/injection, schedule: Q01DX009 (ip), vehicle: water) of the same compound?
Answer: 108 % of control

Question: For `C=C/C=C/NC(=O)N1CCCC1`, which T/C (dose: 100.0 mg/kg/injection, schedule: Q04DX002 (ip), vehicle: suspension in saline) is on record?
Answer: 102 % of control

Question: And the T/C (dose: 200.0 mg/kg/injection, schedule: Q04DX002 (ip), vehicle: suspension in saline)?
Answer: 102 % of control

Question: What about the T/C (dose: 400.0 mg/kg/injection, schedule: Q04DX002 (ip), vehicle: suspension in saline) of the same compound?
Answer: 105 % of control

Question: `CC(C)C1[C@H]2OC(=O)[C@@H]1C1CCC3CN(C)C2C31C` (stereo partly specified) was tested. Which T/C (dose: 1.25 mg/kg/injection, schedule: Q01DX005 (ip), vehicle: Klucel (hydroxypropylcellulose) (HPC)) did it give?
Answer: 99 % of control

Question: What about the T/C (dose: 2.5 mg/kg/injection, schedule: Q01DX005 (ip), vehicle: Klucel (hydroxypropylcellulose) (HPC)) of the same compound?
Answer: 99 % of control

Question: What about the T/C (dose: 5.0 mg/kg/injection, schedule: Q01DX005 (ip), vehicle: Klucel (hydroxypropylcellulose) (HPC)) of the same compound?
Answer: 96 % of control

Question: What about the T/C (dose: 10.0 mg/kg/injection, schedule: Q01DX005 (ip), vehicle: Klucel (hydroxypropylcellulose) (HPC)) of the same compound?
Answer: 95 % of control

Question: What does the source list for `CCCCC(CC)CS(=O)(=O)OCCCCOS(=O)(=O)CC(CC)CCCC` (stereo unspecified)?
Answer: T/C [1]: 101 % of control; T/C [2]: 105 % of control; T/C [3]: 108 % of control

Question: For `CCOC(=O)c1cc[nH]c1CC(=O)NC`, which T/C (dose: 25.0 mg/kg/injection, schedule: Q01DX001 (ip), vehicle: saline with Tween-80) is on record?
Answer: 98 % of control and 107 % of control

Question: And the T/C (dose: 50.0 mg/kg/injection, schedule: Q01DX001 (ip), vehicle: saline with Tween-80)?
Answer: 102 % of control and 105 % of control

Question: What about the T/C [4] of the same compound?
Answer: 103 % of control and 113 % of control

Question: What about the T/C [5] of the same compound?
Answer: 113 % of control and 116 % of control

Question: Which T/C [4] does the source give for `CC(C)(O)c1ccccc1S(=O)c1ccccc1C(C)(C)O` here?
Answer: 93 % of control

Question: And the T/C [5]?
Answer: 95 % of control

Question: What about the T/C (dose: 400.0 mg/kg/injection, schedule: Q01DX001 (ip), vehicle: saline with Tween-80) of the same compound?
Answer: 98 % of control

Question: What does the source list for `Cc1c/c(=N\O)c2c(=O)ccoc2n1O`?
Answer: T/C (dose: 50.0 mg/kg/injection, schedule: Q01DX009 (ip), vehicle: suspension in saline): 99 % of control; T/C (dose: 100.0 mg/kg/injection, schedule: Q01DX009 (ip), vehicle: suspension in saline): 98 % of control; T/C (dose: 200.0 mg/kg/injection, schedule: Q01DX009 (ip), vehicle: suspension in saline): 97 % of control

Question: `O=C1SC/C(=N\N=c2/scc(-c3ccc(Br)cc3)n2-c2ccccc2)N1Cc1ccccc1` was tested. Which T/C (dose: 100.0 mg/kg/injection, schedule: Q04DX002 (ip), vehicle: Klucel (hydroxypropylcellulose) (HPC)) did it give?
Answer: 92 % of control

Question: What about the T/C (dose: 200.0 mg/kg/injection, schedule: Q04DX002 (ip), vehicle: Klucel (hydroxypropylcellulose) (HPC)) of the same compound?
Answer: 91 % of control

Question: What about the T/C (dose: 400.0 mg/kg/injection, schedule: Q04DX002 (ip), vehicle: Klucel (hydroxypropylcellulose) (HPC)) of the same compound?
Answer: 89 % of control

Question: `COC1=C(C)C(=O)c2c(c(C=O)c(Cl)n2C)C1=O` was tested. Which T/C (dose: 100.0 mg/kg/injection, schedule: Q01DX001 (ip), vehicle: Klucel (hydroxypropylcellulose) (HPC)) did it give?
Answer: 99 % of control

Question: What about the T/C (dose: 200.0 mg/kg/injection, schedule: Q01DX001 (ip), vehicle: Klucel (hydroxypropylcellulose) (HPC)) of the same compound?
Answer: 103 % of control

Question: For `CCCCC(CC)CO.[Ti]` (stereo unspecified), which T/C [6] is on record?
Answer: 90 % of control

Question: What about the T/C (dose: 50.0 mg/kg/injection, schedule: Q04DX003 (ip), vehicle: saline with Tween-80) of the same compound?
Answer: 100 % of control

Question: What about the T/C [7] of the same compound?
Answer: 109 % of control

Question: And the T/C (dose: 100.0 mg/kg/injection, schedule: Q04DX003 (ip), vehicle: saline with Tween-80)?
Answer: 100 % of control

Question: What about the T/C [8] of the same compound?
Answer: 100 % of control

Question: And the T/C (dose: 200.0 mg/kg/injection, schedule: Q04DX003 (ip), vehicle: saline with Tween-80)?
Answer: 100 % of control

Question: How did the T/C (dose: 7.5 mg/kg/injection, schedule: Q01DX005 (ip), vehicle: Klucel (hydroxypropylcellulose) (HPC)) turn out when `COc1cc2c3c(c1OC)C=C[C@@H]1CCCN(CC2)[C@H]31` was run?
Answer: 100 % of control

Question: What about the T/C (dose: 15.0 mg/kg/injection, schedule: Q01DX005 (ip), vehicle: Klucel (hydroxypropylcellulose) (HPC)) of the same compound?
Answer: 98 % of control

Question: What about the T/C (dose: 30.0 mg/kg/injection, schedule: Q01DX005 (ip), vehicle: Klucel (hydroxypropylcellulose) (HPC)) of the same compound?
Answer: 101 % of control

Question: Which results are given for `CNC(=O)C1OC(n2cnc3c(N)ncnc32)C(O)C1O` (stereo unspecified)?
Answer: T/C (dose: 0.78 mg/kg/injection, schedule: Q01DX005 (ip), vehicle: saline with Tween-80): 109 % of control and 110 % of control and 120 % of control; T/C (dose: 1.56 mg/kg/injection, schedule: Q01DX005 (ip), vehicle: saline with Tween-80): 113 % of control and 114 % of control and 116 % of control; T/C (dose: 3.13 mg/kg/injection, schedule: Q01DX005 (ip), vehicle: saline with Tween-80): 117 % of control

Question: Which results are given for `CCN(CC)c1ccc(N=C(NC#N)SC)cc1`?
Answer: T/C [9]: 104 % of control; T/C [10]: 103 % of control; T/C (dose: 200.0 mg/kg/injection, schedule: Q01DX009 (ip), vehicle: Klucel (hydroxypropylcellulose) (HPC)): 106 % of control

Question: Which results are given for `C=C1CC2(CCCc3ccccc32)OC1=O` (stereo unspecified)?
Answer: T/C (dose: 100.0 mg/kg/injection, schedule: Q01DX001 (ip), vehicle: saline): 101 % of control; T/C (dose: 200.0 mg/kg/injection, schedule: Q01DX001 (ip), vehicle: saline): 102 % of control; T/C (dose: 400.0 mg/kg/injection, schedule: Q01DX001 (ip), vehicle: saline): 101 % of control

Question: Which results are given for `CCOC(=O)C([NH-])C([NH-])C(=O)OCC.[Cl][Pt+2][Cl]` (stereo unspecified)?
Answer: T/C (dose: 12.5 mg/kg/injection, schedule: Q04DX002 (ip), vehicle: saline with Tween-80): 163 % of control; T/C (dose: 25.0 mg/kg/injection, schedule: Q04DX002 (ip), vehicle: saline with Tween-80): 164 % of control

Question: With `COc1ccc2c(c1OC)C[N+]1(C)CCc3cc4c(cc3C1=C2)OCO4` (stereo unspecified) as the compound, how does the T/C (dose: 0.63 mg/kg/injection, schedule: Q01DX009 (ip), vehicle: water) read?
Answer: 114 % of control

Question: And the T/C (dose: 1.25 mg/kg/injection, schedule: Q01DX009 (ip), vehicle: water)?
Answer: 108 % of control

Question: And the T/C (dose: 2.5 mg/kg/injection, schedule: Q01DX009 (ip), vehicle: water)?
Answer: 100 % of control

Question: And the T/C (dose: 5.0 mg/kg/injection, schedule: Q01DX009 (ip), vehicle: water)?
Answer: 101 % of control

Question: And the T/C (dose: 10.0 mg/kg/injection, schedule: Q01DX009 (ip), vehicle: water)?
Answer: 110 % of control

Question: What does the source list for `CC1=CC2(C)OC(=O)N(c3ccccc3)C2N=C1` (stereo unspecified)?
Answer: T/C [9]: 111 % of control; T/C [10]: 109 % of control

Question: Which results are given for `COc1cc(N)ccc1NC(=O)c1ccccc1`?
Answer: T/C (dose: 6.25 mg/kg/injection, schedule: Q01DX009 (ip), vehicle: saline with Tween-80): 109 % of control; T/C (dose: 12.5 mg/kg/injection, schedule: Q01DX009 (ip), vehicle: saline with Tween-80): 100 % of control

Question: Which T/C (dose: 60.0 mg/kg/injection, schedule: Q01DX005 (ip), vehicle: saline with Tween-80) does the source give for `CCc1c(O)c(C#N)c2[nH]c3cc(C)c(C)cc3n2c1=O` here?
Answer: 100 % of control

Question: And the T/C (dose: 120.0 mg/kg/injection, schedule: Q01DX005 (ip), vehicle: saline with Tween-80)?
Answer: 102 % of control

Question: What about the T/C (dose: 240.0 mg/kg/injection, schedule: Q01DX005 (ip), vehicle: saline with Tween-80) of the same compound?
Answer: 99 % of control

Question: With `CC(=O)O[C@]1(C(C)=O)CC[C@H]2[C@@H]3C[C@H](C)C4=CC(=O)NCC[C@]4(C)[C@H]3CC[C@@]21C` as the compound, how does the T/C (dose: 50.0 mg/kg/injection, schedule: Q01DX005 (ip), vehicle: Klucel + Tween-80) read?
Answer: 98 % of control

Question: And the T/C (dose: 100.0 mg/kg/injection, schedule: Q01DX005 (ip), vehicle: Klucel + Tween-80)?
Answer: 93 % of control

Question: What about the T/C (dose: 200.0 mg/kg/injection, schedule: Q01DX005 (ip), vehicle: Klucel + Tween-80) of the same compound?
Answer: 94 % of control

Question: With `CCOC(=O)/C(C#N)=C/c1ccc(OC)c(OC)c1` as the compound, how does the T/C [1] read?
Answer: 99 % of control

Question: And the T/C [2]?
Answer: 108 % of control

Question: And the T/C [3]?
Answer: 100 % of control

Question: With `Cc1ccc(-c2nc3ccccc3c(=O)n2/N=C/c2ccccc2O)cc1` as the compound, how does the T/C [6] read?
Answer: 101 % of control

Question: What about the T/C [7] of the same compound?
Answer: 100 % of control

Question: What about the T/C [8] of the same compound?
Answer: 93 % of control

Question: Which results are given for `CCOC(=O)Cc1c(C)noc1OC`?
Answer: T/C (dose: 25.0 mg/kg/injection, schedule: Q01DX005 (ip), vehicle: saline with Tween-80): 106 % of control; T/C (dose: 50.0 mg/kg/injection, schedule: Q01DX005 (ip), vehicle: saline with Tween-80): 97 % of control; T/C (dose: 100.0 mg/kg/injection, schedule: Q01DX005 (ip), vehicle: saline with Tween-80): 99 % of control; T/C (dose: 200.0 mg/kg/injection, schedule: Q01DX005 (ip), vehicle: saline with Tween-80): 97 % of control
